From paper PMC4686831, “Identification of an allosteric binding site for RORγt inhibition” (Nature Communications, 2015)
Read-outs that look alike come from different tables or passages of the source.

Columns and labels:
[1] = system: IL-17 production in human PBMCs; assay: PBMC Th17 polarization and IL-17 production assay; format: cell-based; settings: 96 h, 4 days, mean±s.d., read-out: hPBMC IL17A IC50
Protocol: Test compounds were prepared as 10 mM stocks in DMSO and serially diluted 1:3 to provide an eight-concentration titration. […] Stimulatory cytokines were added to final concentrations of 25 ng ml^−1 IL-1B, 10 ng ml^−1 IL-23, 0.5 ng ml^−1 IL-2 and 10 ng ml^−1 IL-6 (all cytokines from R&D Systems). In addition, T-Activator CD3/28 Dynabeads (Invitrogen) were added to a concentration of 100,000 beads per ml. The stimulated cells were immediately dispensed into the assay plate containing serially diluted compound at a volume of 200 μl cells per well. Cell plates were then incubated at 37 °C and 5% CO2 for 4 days. Culture media (100 μl) was collected from each well and IL-17 expression was measured by enzyme-linked immunosorbent assay (R&D Systems) according to the manufacturer's instructions. Cell viability was assessed by the addition of 100 μl of CellTiter-Glo (Promega) to each well of the cell assay plate followed by luminescence detection on an Envision plate reader (PerkinElmer).

[2] = system: IL17a mRNA expression in EL4 cells; assay: Quantitative IL17a RT-PCR in EL4 cells; format: cell-based, mouse; settings: 10 μM, 24 h, vs DMSO, normalized to GAPDH
Protocol: EL4 cells (Sigma-Aldrich) were grown in DMEM (Gibco). At 24 h after the cells were seeded onto a 12-well plate, the cells were treated with ligands 1–3 (from 10 mM stock in DMSO) or DMSO. After 24 h, the cells were collected and RNA was isolated using a RNeasy Plus Micro Kit (Qiagen) and reverse transcribed using the iScrip cDNA biosynthesis kit (Bio-Rad). Quantitative RT–PCR was performed to analyse mRNA levels of mouse IL17a levels using SYBR green technology (Bio-Rad) on a CFX Real-Time System (Bio-Rad). Primer sequences used for IL17a:[45] Fw: 5′-[…]-3′, Rev: 5′-[…]-3′ and Gapdh: Fw: 5′-[…]-3′, Rev: 5′-[…]-3′. The level of IL17a mRNA expression was normalized to that of Gapdh expression. All data are expressed as the mean±s.e.m. (n=6). Statistical analysis was performed using an one-way analysis of variance comparing against the DMSO control following Dunnett post hoc test.

[3] = system: CD36 and FABP4 gene expression in MSCs; set-up: dose or concentration left out as unconfirmed; settings: MRL-299, data not shown
[4] = system: adiponectin gene expression; assay: Adiponectin gene expression in MSCs; settings: read-out: IC50, inhibition of adiponectin gene expression
GR = GR (Homo sapiens, UniProt P04150); assay: Receptor reporter assay selectivity panel: GR
Sequence of GR (P04150 whole entry): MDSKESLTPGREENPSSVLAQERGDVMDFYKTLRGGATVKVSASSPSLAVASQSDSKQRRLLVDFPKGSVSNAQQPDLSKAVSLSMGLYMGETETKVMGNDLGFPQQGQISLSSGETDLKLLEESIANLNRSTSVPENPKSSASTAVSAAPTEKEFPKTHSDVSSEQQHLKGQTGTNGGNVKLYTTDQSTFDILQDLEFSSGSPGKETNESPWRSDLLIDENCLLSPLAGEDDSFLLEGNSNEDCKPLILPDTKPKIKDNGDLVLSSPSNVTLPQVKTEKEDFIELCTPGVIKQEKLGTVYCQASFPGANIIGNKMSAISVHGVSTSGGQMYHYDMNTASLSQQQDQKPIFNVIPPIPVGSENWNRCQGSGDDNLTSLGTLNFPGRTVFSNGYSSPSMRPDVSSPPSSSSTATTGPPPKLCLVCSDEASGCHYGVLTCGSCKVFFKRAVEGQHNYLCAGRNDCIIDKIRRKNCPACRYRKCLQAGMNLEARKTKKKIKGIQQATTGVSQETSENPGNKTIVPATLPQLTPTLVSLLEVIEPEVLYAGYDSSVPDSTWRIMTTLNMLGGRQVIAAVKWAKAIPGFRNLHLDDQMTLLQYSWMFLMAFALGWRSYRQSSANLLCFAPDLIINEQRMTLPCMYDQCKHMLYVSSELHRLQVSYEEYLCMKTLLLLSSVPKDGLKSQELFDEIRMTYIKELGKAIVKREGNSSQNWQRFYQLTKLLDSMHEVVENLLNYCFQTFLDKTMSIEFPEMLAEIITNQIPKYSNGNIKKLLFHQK
Protocol: (§1) * Receptor Reporter Assay Selectivity Panel- Assays were performed by Indigo Bioscience (State
(§2) College, PA) according to their established protocols. The AR, ER, GR, MR, and PR assays utilize full
(§3) length receptor constructs whereas all others are chimeric with the GAL4 DNA binding domain.

MR = MR (Homo sapiens, UniProt P08235); assay: Receptor reporter assay selectivity panel: MR
Protocol: as §1, §2, §3

PR = PR (Homo sapiens, UniProt P06401); assay: Receptor reporter assay selectivity panel: PR
Sequence of PR (P06401 whole entry): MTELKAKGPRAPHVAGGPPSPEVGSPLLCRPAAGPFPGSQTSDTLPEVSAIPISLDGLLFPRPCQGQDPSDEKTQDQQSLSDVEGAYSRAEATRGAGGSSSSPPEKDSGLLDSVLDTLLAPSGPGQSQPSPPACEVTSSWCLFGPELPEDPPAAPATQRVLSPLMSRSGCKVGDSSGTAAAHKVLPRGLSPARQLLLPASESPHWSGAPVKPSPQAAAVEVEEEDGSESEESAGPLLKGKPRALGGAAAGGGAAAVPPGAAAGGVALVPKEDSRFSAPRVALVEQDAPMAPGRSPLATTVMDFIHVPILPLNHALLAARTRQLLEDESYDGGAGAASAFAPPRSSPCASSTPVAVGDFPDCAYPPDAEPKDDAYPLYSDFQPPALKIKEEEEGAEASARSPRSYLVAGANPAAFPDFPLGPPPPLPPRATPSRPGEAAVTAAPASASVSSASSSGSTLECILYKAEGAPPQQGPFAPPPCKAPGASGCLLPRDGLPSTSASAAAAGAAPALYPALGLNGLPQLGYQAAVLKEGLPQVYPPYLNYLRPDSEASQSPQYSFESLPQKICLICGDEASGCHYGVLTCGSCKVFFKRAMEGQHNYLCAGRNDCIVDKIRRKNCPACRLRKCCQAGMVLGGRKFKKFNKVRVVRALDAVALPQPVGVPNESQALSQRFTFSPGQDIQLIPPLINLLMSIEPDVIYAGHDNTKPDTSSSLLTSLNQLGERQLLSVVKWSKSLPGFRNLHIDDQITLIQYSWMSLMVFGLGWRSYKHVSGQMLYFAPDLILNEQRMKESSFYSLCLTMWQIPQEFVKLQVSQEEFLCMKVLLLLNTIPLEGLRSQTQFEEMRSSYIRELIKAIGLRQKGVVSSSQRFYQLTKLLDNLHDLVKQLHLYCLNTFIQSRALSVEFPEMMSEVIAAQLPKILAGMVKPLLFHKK
Protocol: as §1, §2, §3

AhR = AhR (Homo sapiens, UniProt P35869); assay: Receptor reporter assay selectivity panel: AhR
Protocol: as §1, §2, §3

ERa = ERa (Homo sapiens, UniProt P03372); assay: Receptor reporter assay selectivity panel: ERa
Sequence of ERa (P03372 whole entry): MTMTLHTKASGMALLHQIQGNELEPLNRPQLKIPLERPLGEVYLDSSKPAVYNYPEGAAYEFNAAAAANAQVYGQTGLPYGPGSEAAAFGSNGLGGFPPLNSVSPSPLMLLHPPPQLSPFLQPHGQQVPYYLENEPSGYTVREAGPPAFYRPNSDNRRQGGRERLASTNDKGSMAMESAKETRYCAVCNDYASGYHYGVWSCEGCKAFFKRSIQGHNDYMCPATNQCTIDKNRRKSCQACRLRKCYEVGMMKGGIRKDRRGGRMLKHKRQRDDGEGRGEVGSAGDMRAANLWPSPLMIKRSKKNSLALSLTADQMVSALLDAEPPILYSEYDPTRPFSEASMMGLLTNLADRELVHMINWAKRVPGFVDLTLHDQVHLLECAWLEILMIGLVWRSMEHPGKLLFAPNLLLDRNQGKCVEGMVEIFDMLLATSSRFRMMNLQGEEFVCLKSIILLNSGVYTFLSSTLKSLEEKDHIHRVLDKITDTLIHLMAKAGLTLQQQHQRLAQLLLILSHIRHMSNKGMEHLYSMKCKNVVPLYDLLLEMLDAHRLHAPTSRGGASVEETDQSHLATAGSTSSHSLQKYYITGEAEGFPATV
Protocol: as §1, §2, §3

ERb = ERb (Homo sapiens, UniProt Q92731); assay: Receptor reporter assay selectivity panel: ERb
Protocol: as §1, §2, §3

FXR = FXR (Homo sapiens, UniProt Q96RI1); assay: Receptor reporter assay selectivity panel: FXR
Sequence of FXR (Q96RI1 262-486 limits assumed): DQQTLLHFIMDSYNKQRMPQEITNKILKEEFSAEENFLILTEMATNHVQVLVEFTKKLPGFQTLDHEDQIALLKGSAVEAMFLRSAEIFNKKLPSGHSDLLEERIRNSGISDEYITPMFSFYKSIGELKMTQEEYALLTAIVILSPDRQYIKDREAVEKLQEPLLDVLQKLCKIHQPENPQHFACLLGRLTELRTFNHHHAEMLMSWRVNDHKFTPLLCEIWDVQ
Protocol: as §1, §2, §3

PXR = molecular target: T1, PXR (Homo sapiens, UniProt O75469); assay: Receptor reporter assay selectivity panel: PXR
T1 sequence (O75469 146-434 limits assumed): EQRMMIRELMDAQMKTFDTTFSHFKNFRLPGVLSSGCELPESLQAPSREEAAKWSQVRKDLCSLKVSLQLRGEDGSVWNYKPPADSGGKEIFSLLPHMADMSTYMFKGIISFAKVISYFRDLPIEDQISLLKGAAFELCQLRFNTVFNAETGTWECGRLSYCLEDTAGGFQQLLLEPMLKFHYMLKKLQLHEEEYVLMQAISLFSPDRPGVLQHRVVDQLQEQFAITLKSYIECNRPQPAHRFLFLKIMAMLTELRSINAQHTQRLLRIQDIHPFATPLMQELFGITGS
Protocol: as §1, §2, §3

TRa = TRa (Homo sapiens, UniProt P10827); assay: Receptor reporter assay selectivity panel: TRa
Protocol: as §1, §2, §3

TRb = TRb (Homo sapiens, UniProt P10828); assay: Receptor reporter assay selectivity panel: TRb
Sequence of TRb (P10828 217-461 limits assumed): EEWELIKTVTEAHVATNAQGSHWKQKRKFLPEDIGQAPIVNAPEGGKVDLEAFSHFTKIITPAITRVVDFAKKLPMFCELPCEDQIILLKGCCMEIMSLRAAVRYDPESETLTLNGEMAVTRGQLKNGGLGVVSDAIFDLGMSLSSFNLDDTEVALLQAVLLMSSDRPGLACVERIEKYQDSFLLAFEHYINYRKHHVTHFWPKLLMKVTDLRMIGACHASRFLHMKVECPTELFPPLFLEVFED
Protocol: as §1, §2, §3

VDR = VDR (Homo sapiens, UniProt P11473); assay: Receptor reporter assay selectivity panel: VDR
Sequence of VDR (P11473 127-427 limits assumed): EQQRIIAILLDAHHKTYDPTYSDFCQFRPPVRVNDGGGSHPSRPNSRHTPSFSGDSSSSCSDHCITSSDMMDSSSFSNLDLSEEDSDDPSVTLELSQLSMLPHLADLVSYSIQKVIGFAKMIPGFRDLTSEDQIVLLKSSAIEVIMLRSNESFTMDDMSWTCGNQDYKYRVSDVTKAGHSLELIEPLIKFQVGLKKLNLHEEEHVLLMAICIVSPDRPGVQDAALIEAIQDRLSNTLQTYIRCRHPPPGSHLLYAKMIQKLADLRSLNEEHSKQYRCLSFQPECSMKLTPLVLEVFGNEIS
Protocol: as §1, §2, §3

CAR1 = CAR1 (Homo sapiens, UniProt Q14994); assay: Receptor reporter assay selectivity panel: CAR1
Protocol: as §1, §2, §3

CAR2 = CAR2 (Homo sapiens, UniProt Q14994); assay: Receptor reporter assay selectivity panel: CAR2
Protocol: as §1, §2, §3

CAR3 = CAR3 (Homo sapiens, UniProt Q14994); assay: Receptor reporter assay selectivity panel: CAR3
Protocol: as §1, §2, §3

LXRa = LXRa (Homo sapiens, UniProt Q13133); assay: Receptor reporter assay selectivity panel: LXRa
Sequence of LXRa (Q13133 209-447 limits assumed): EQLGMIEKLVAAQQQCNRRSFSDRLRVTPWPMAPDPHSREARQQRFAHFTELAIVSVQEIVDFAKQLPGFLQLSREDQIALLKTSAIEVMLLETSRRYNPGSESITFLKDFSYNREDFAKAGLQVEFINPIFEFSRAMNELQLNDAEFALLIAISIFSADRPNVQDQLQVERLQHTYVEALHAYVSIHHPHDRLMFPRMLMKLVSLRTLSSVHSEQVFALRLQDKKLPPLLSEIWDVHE
Protocol: as §1, §2, §3

LXRb = LXRb (Homo sapiens, UniProt P55055); assay: Receptor reporter assay selectivity panel: LXRb
Sequence of LXRb (P55055 222-460 limits assumed): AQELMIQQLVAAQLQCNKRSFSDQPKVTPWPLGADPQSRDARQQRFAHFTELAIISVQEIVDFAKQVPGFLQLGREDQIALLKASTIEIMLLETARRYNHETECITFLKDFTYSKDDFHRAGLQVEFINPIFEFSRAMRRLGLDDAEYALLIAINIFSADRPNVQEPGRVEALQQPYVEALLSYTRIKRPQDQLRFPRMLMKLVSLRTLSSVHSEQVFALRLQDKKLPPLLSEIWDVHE
Protocol: as §1, §2, §3

RARa = RARa (Homo sapiens, UniProt P10276); assay: Receptor reporter assay selectivity panel: RARa
Protocol: as §1, §2, §3

RARb = RARb (Homo sapiens, UniProt P10826); assay: Receptor reporter assay selectivity panel: RARb
Sequence of RARb (P10826 183-417 limits assumed): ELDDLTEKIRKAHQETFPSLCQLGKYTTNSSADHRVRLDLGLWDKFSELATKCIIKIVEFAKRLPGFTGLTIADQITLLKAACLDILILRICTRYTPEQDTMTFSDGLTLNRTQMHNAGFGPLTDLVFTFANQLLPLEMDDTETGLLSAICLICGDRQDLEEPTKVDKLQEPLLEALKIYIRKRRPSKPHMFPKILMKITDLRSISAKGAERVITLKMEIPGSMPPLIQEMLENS
Protocol: as §1, §2, §3

RARg = molecular target: T2, RARg (Homo sapiens, UniProt P13631); assay: Receptor reporter assay selectivity panel: RARg
T2 sequence (P13631 185-419 limits assumed): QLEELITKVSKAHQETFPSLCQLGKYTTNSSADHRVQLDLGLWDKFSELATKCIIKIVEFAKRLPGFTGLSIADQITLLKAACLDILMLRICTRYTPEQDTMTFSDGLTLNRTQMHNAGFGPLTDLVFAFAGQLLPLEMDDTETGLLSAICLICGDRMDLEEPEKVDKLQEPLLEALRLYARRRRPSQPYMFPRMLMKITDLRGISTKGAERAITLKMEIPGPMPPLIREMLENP
Protocol: as §1, §2, §3

RXRa = RXRa (Homo sapiens, UniProt P19793); assay: Receptor reporter assay selectivity panel: RXRa
Protocol: as §1, §2, §3

RXRb = RXRb (Homo sapiens, UniProt P28702); assay: Receptor reporter assay selectivity panel: RXRb
Protocol: as §1, §2, §3

RXRg = RXRg (Homo sapiens, UniProt P48443); assay: Receptor reporter assay selectivity panel: RXRg
Protocol: as §1, §2, §3

PPARa = PPARa (Homo sapiens, UniProt Q07869); assay: Receptor reporter assay selectivity panel: PPARa
Sequence of PPARa (Q07869 200-468 limits assumed): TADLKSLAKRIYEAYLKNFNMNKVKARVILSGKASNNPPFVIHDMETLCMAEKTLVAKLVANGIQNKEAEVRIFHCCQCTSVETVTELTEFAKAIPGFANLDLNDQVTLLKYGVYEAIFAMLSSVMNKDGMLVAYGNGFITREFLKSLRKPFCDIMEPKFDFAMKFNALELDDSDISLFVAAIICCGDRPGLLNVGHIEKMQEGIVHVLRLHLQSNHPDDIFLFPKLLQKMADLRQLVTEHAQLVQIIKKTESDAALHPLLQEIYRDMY
Protocol: as §1, §2, §3

PPARd = PPARd (Homo sapiens, UniProt Q03181); assay: Receptor reporter assay selectivity panel: PPARd
Sequence of PPARd (Q03181 171-441 limits assumed): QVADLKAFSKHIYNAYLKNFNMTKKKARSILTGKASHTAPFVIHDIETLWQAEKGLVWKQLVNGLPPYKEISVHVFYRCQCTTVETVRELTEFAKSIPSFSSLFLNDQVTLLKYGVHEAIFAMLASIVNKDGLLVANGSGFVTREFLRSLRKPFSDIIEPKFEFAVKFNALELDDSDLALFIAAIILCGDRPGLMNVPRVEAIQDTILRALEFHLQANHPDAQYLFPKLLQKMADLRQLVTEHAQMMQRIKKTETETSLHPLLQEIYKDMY
Protocol: as §1, §2, §3

PPARg = PPARg (Homo sapiens, UniProt P37231); assay: Receptor reporter assay selectivity panel: PPARg
Sequence of PPARg (P37231 232-505 limits assumed): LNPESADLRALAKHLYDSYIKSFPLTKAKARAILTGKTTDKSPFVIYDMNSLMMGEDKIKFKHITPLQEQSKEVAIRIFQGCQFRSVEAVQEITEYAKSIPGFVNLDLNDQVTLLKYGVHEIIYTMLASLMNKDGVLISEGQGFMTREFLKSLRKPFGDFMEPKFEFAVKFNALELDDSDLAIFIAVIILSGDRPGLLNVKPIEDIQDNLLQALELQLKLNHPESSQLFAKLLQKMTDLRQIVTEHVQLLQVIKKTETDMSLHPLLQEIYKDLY
Protocol: as §1, §2, §3

[5] = system: Human mesenchymal stem cells (MSCs); assay: Adipogenesis of human mesenchymal stem cells (PPARγ dependent); settings: read-out: IC50, inhibition of adipogenesis
AR = AR (Homo sapiens, UniProt P10275); assay: Receptor reporter assay selectivity panel (Indigo Bioscience): AR
Protocol: as §1, §2, §3

human RORγt LBD = molecular target: T3, human RORγt LBD (Homo sapiens, UniProt P51449); assay: HTRF / TR-FRET cofactor peptide recruitment assay; format: biochemical; settings: Fig. 2a
T3 construct: The human RORγt LBD used for the HTRF assay; made in house; host or cells: Escherichia coli BL21(DE3)
T3 sequence (P51449 269-508 limits assumed): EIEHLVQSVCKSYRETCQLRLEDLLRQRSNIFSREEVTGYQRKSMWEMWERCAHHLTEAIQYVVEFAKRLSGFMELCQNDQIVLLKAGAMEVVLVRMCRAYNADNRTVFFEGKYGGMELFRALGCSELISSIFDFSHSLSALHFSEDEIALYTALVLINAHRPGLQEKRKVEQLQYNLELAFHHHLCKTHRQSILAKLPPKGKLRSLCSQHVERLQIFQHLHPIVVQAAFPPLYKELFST
Protocol: The human RORγt LBD used for the HTRF assay was expressed as a His6-tag fusion protein from the pET15b expression vector in Escherichia coli BL21(DE3) cells. Cells transformed with this vector were grown in 2 × YT medium supplemented with ampicillin until an OD600=0.7 was reached. Protein expression was then induced with 0.1 mM isopropyl-b-d-thiogalactoside (IPTG). After incubation for 16 h at 16 °C, cell cultures were collected by centrifugation. The cells were lysed via sonication and the protein was purified via Ni^2+-affinity column chromatography.
The homogeneous TR-FRET assays were performed in triplicate with 20 nM His6-RORγt and 100 nM biotin labelled cofactor peptide. […] Assay buffer contained 100 mM HEPES (pH 7.5), 100 mM NaCl, 5 mM dithiothreitol (DTT) and 0.1% bovine serum albumin. The plates (white 384-well plates Greiner Bio-One) were incubated for 2 h at 4 °C before the FRET ratio was measured in a Tecan Infinite F500 plate reader. The data were analysed using Origin software.

In the case of `O=C(O)c1ccc(-c2nn(C(=O)c3c(Cl)cccc3C(F)(F)F)c3ccccc23)cc1` [MRL-871], the IC50 [1] is reported as 0.0396 ± 0.018 µM and the “IL17a mRNA levels” value [2] is reported as “significantly reduced”.
For `CN(CCOc1ccc(CC2SC(=O)NC2=O)cc1)c1ccccn1` (stereo not drawn) [Rosiglitazone, rosiglitazone, reference compound], the “induction of CD36 gene expression” value [3] was 3 fold and the “induction of FABP4 gene expression” value [3] was 2 fold.
With `O=C(O)c1ccc(-c2nn(C(=O)c3c(Cl)cccc3C(F)(F)F)c3cccc(F)c23)c(F)c1` [MRL-299] the IC50 [1] was 0.0094 ± 0.0052 µM, the IC50 ([4]; Homo sapiens) was ~30 µM and the EC50 (GR) was > 30 µM. For the same compound, the IC50 (GR) was 18.5 µM, the EC50 (MR) was > 30 µM and the IC50 (MR) was 20 µM. The EC50 (PR) was > 30 µM, the IC50 (PR) was > 30 µM and the EC50 (AhR) was > 30 µM. The EC50 (ERa) was > 30 µM, the IC50 (ERa) was > 30 µM and the EC50 (ERb) was > 30 µM. For the same compound, the IC50 (ERb) was 10.8 µM, the EC50 (FXR) was > 30 µM and the IC50 (FXR) was 13.6 µM. The EC50 (PXR) was 4.62 µM, the IC50 (PXR) was > 30 µM and the “agonist maximum, % of rifampicin max” value (PXR; PXR, relative to rifampicin control) was 63%. For the same compound, the EC50 (TRa) was > 30 µM, the IC50 (TRa) was 4.49 µM and the EC50 (TRb) was > 30 µM. For the same compound, the IC50 (TRb) was 5.73 µM, the EC50 (VDR) was > 30 µM and the IC50 (VDR) was > 30 µM. For the same compound, the IC50 (CAR1) was 16.7 µM, the EC50 (CAR2) was > 30 µM and the EC50 (CAR3) was > 30 µM. For the same compound, the EC50 (LXRa) was > 30 µM, the IC50 (LXRa) was 23.2 µM and the EC50 (LXRb) was > 30 µM. The IC50 (LXRb) was 21.5 µM, the EC50 (RARa) was > 30 µM and the EC50 (RARb) was > 30 µM. The IC50 (RARb) was 12.3 µM, the EC50 (RARg) was 0.364 µM and the IC50 (RARg) was 3.11 µM. The “agonist maximum, % of ATRA max” value (RARg; RARg, relative to ATRA control) was 20%, the EC50 (RXRa) was > 30 µM and the IC50 (RXRa) was 7.42 µM. The EC50 (RXRb) was > 30 µM, the IC50 (RXRb) was 28 µM and the EC50 (RXRg) was > 30 µM. For the same compound, the EC50 (PPARa) was > 30 µM, the IC50 (PPARa) was 19.1 µM and the EC50 (PPARd) was > 30 µM. The IC50 (PPARd) was 28 µM, the EC50 (PPARg) was 0.686 µM and the IC50 (PPARg) was 0.517 µM. For the same compound, the “induction of CD36 gene expression” value [3] was “no induction”, the “induction of FABP4 gene expression” value [3] was “no induction” and the IC50 ([5]; Homo sapiens, Mesenchymal stem cells) was ~50 µM. For the same compound, the EC50 (AR) was > 30 µM and the IC50 (AR) was 12 µM.
In the case of `O=C(Nc1ccccc1)c1cc([N+](=O)[O-])ccc1Cl` [GW9662, reference compound], the IC50 ([4]; human MSCs, data not shown) is reported as 1 µM and the IC50 ([5]; human MSCs under adipogenic conditions, data not shown) is reported as 5.4 µM.
`CC(C)CCC[C@@H](C)[C@H]1CC[C@H]2[C@@H]3CC=C4C[C@@H](O)CC[C@]4(C)[C@H]3CC[C@]12C` [Cholesterol, cholesterol, reference compound] was tested, and the “effect on interaction of RORγt-LBD with cofactor peptide” value (human RORγt LBD) was “weak activator”.
For `O=C(O)c1ccc(-c2nn(C(=O)c3ccccc3C(F)(F)F)c3ccccc23)cc1` [MRL-058], the “IL17a mRNA levels” value [2] was “significantly reduced”.
`O=C(O)c1ccc(-c2nn(C(=O)c3ccccc3)c3ccccc23)cc1` [MRL-003] was tested, and the IC50 (human RORγt LBD; read-out: IC50, inhibition of coactivator binding (cofactor peptide recruitment)) was 0.28 ± 0.117 µM and the “IL17a mRNA levels” value [2] was “did not reduce”.
